Measurements reported in patent US20230203060A1 (GENFLEET THERAPEUTICS (SHANGHAI) INC., priority 2020, published 2023).
Like-named read-outs stand apart in the source and are kept apart here.

Assays:
[1] = system: KRAS G12C mutant NCI-H358 cells; assay: Cell proliferation inhibition experiment, 3D spheroid, CellTiter-Glo, NCI-H358; type: cell-based, human; conditions: NCI-H358 (KRAS G12C mutant) 3D spheroid, 5 days with compound, CellTiter-Glo, read-out: H358 IC50
How it was run: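 First, H358 (800/well) or A549 (400/well) cells are plated in 2% FBS medium and left overnight to form spheroids. Next, compound is added as a 3.16-fold gradient at 0.1% DMSO for 5 days. Finally, CellTiter-Glo signal is read and IC50 derived by four-parameter fitting.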

[2] = system: phosphorylated ERK downstream of KRAS G12C in MIA PaCa2 cells; assay: Cell p-ERK detection experiment (HTRF) in MIA PaCa2; type: cell-based, human; conditions: Homo sapiens, MIA PaCa-2, 2 h, MIA PaCa2 cells, 2 hours with compound, Advance ERK phospho-T202/Y204 HTRF kit; read-out: p-ERK IC50
Excerpt: Raw materials and instruments: MIA PaCa-2 purchased from ATCC; article number: CRL-1420; batch number: 63143594; DMEM purchased from Gibco; article number: 11995-065; batch number: 2186878; FBS purchased from Gibco; article number: 10099-141; batch number: 2109290CP; Horse serum purchased from Gibco; article number: 16050-122; batch number: 1818976; Trypsin-EDTA purchased from Gibco; article number: 25200-072; batch number: 2085552; PS purchased from Gibco; article number: 15140-122; batch number: 2145451; DMSO purchased from VWR AMRESCO; article number: 0231-500ML; batch number: 0457C072; 96-well cell culture plate purchased from Corning; article number: 3599; batch number: 22718601; white opaque 96-well plate purchased from Cisbio; article number: 66PL96025; batch number: N°05; Advance ERK phospho-T202/Y204 kit purchased from Cisbio; article number: 64AERPEH; batch number: 11D; microplate reader purchased from PerkinElmer; model: Envision MLD2105-0020; equipment number 1050369.
MIA PaCa2 was a KRAS G12C mutant human pancreatic cancer cell line cultured in 10% FBS+2.5% Horse serum DMEM culture medium. Cells at logarithmic growth stage were taken, digested with trypsin-EDTA, then collected and counted, and 2.5E4 cells were inoculated in a 96-well cell culture plate and cultured overnight. A 3.16-fold gradient concentration stock solution of 1000× compound was prepared with DMSO, and diluted 200-fold to 5× compound stock solution with culture medium. On the second day after cell inoculation, 5× compound stock solution was added to each cell culture well, with a final concentration of 1× and a DMSO content of 0.1%. DMSO was used as experimental control (control). After the compound was added and cultured for two hours, the residual culture medium was removed. 50 μL of cell lysate (from Advance ERK phospho-T202/Y204 kit, the same below) was added to each well, mixed well and incubated for 30 minutes, and then 16 μL of the mixed solution was transferred to a white opaque 96-well plate, and 16 μL of cell lysate was added to the blank wells. After the transfer was completed, 4 μL of p-ERK HTRF antibody (from Advance ERK phospho-T202/Y204 kit) mixture was added to each well, incubated for 4 hours, and the fluorescence value was read with the microplate reader. The inhibition rate of the compound IR (%)=(RLU control -RLU compound)/(RLU control-RLU blank)×100% was calculated. The gradient dilution concentration of the compound and the corresponding cell proliferation inhibition rate were fitted by Prism 8 four-parameter method, and the IC50 value was calculated. The compounds prepared in the above embodiments of the present disclosure have inhibitory activity of 0.0001 μM to 1 μM on the phosphorylated ERK level downstream of the cell channel of KRAS G12C protein mutant; some compounds have inhibitory activity of 0.001 μM to 1 μM or 0.001 μM to 0.5 μM on phosphorylated ERK level downstream of cell channel of KRAS G12C protein mutant.

[3] = molecular target: T1, KRAS G12C (Homo sapiens, UniProt P01116, G12C); assay: KRAS G12C NEA-HTRF experiment (SOS1-catalyzed displacement of GDP by GTP); type: biochemical
T1 construct: purchased Reactionbiology
Excerpt: Raw materials and instruments: KRAS G12C (his-tag) purchased from Reactionbiology; batch number 3496; SOS1 purchased from Reactionbiology; batch number: 3501; GTP purchased from Sigma; article number: G8877; batch number: SLBV1450; Tris-HC1 purchased from Sigma; EDTA purchased from absin; article number: abs42017668; batch number: JE20; NaCl purchased from Sigma; article number: 55886; batch number: SLBW4193; MgCl2 purchased from Shyuanye; article number: R21455; batch number: L07S9G69806; HEPES purchased from Life Technologies; article number: 15630-080; batch number: 2037042; DTT purchased from Thermo Fisher; article number: R0862; batch number: 00608918; Triton X-100 purchased from Sigma; article number: T8787-100 ML; batch number: SLBW7103; DY647-labeled GDP purchased from Jena Bioscience; article number: NU-840-647P1; batch number: BM019-045; Anti-6H1S-Tb purchased from Cisbio; article number: 61H12TLA; batch number: 13A; Bradford Assay Kit purchased from Thermo Fisher; article number: 23246; batch number: UG287474; white opaque 96-well plate purchased from Cisbio; article number: 66PL96025; batch number: N°06; NAP-5 column purchased from GE Healthcare; article number: 17085301; batch number: 16995164; mircoplate reader purchased from PerkinElmer; model: Envision MLD2105-0020; equipment number 1050369. The effect of compounds on SOS1-catalyzed displacement of GDP by GTP on KRAS protein was examined using a homogeneous time-resolved fluorescence (HTRF) method. 30 μM 6×his-tagged KRAS G12C recombinant protein was incubated with 80 μM fluorescent dye DY647-labeled GDP in labeling buffer (1 mM DTT, 7.5 mM EDTA, 25 mM Tris-HCl, 45 mM NaCl) at 20° C. in the dark for 2 hours, purified using NAP-5 column, and then protein quantification was performed with Bradford Assay Kit after purification to determine the concentration of KRAS […] 3.16-fold gradient concentration stock solution of 1000× compound was prepared with DMSO, and diluted 250-fold to 4× compound stock solution with reaction buffer (40 mM HEPES, 10 mM MgCl2, 1 mM DTT, 0.002% Triton X-100). KRAS G12C-GDP/Tb working solution (40 nM KRAS […] Tb) and SOS1/GTP working solution (0.2 μM SOS1, 200 μM GTP) were prepared using the reaction buffer. A white opaque 96-well plate was taken, and 5 μL of 4× compound stock solution and 10 μL of KRAS G12C-GDP/Tb working solution were added to each well. 5 μL of reaction buffer instead of 4x compound stock solution was used in the control well. After incubation in the dark for 15 minutes at 20° C., 5μL of SOS1/GTP working solution was added thereto, and the fluorescence value (excitation wavelength: 320 nm, emission wavelength: 615 nm and 665 nm) was read after incubating at 20° C. in the dark for 2 hours. Another T0 group was set up with 10 μL reaction buffer+10 μL KRAS G12C-GDP/Tb working solution, and the fluorescence value was read directly by the microplate reader. The fluorescence signal ratio RLU=(665 nm signal/615 nm signal)×10^4; and the compound inhibition rate IR (%)=(RLUcompound-RLUcontrol)/(RLUT0-RLUcontrol)×100% were calculated. The IC50 value was calculated by fitting the gradient dilution concentration of compound and the corresponding inhibition rate with the four-parameter method. The NEA activity of the compounds prepared in the above embodiments of the present disclosure was 0.0001 μM to 1 μM; the inhibitory activity of some compounds on KRAS G12C mutant MIA PaCa-2 cells was 0.001 μM to 0.5 μM or 0.001 μM to 0.1 μM.

[4] = system: KRAS G12C mutant MIA PaCa-2 cells; assay: Cell proliferation inhibition experiment, 3D spheroid, CellTiter-Glo, MIA PaCa-2; type: cell-based, human; conditions: Homo sapiens, MIA PaCa-2, 120 h, 3D cell model in 384-well spheroid plate, 5 days, CellTiter-Glo; read-out: MIA-PaCa2 IC50
How it was run: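 Luminescent ATP read-out (CellTiter-Glo) after 5-day compound treatment of spheroids formed overnight from 200 MIA PaCa-2 cells/well; compounds in 3.16-fold series, 0.1% DMSO final. IC50 derived by four-parameter fit of percent inhibition, normalized to DMSO control and medium blank.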

T1 sequence (P01116 1-188 isoform P01116-2 G12C): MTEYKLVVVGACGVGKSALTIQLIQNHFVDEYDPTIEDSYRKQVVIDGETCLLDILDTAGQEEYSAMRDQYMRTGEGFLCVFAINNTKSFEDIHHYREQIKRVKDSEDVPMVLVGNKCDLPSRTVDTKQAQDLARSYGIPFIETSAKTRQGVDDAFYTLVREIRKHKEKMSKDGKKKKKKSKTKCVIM

Structure (SMILES)	IC50 ([1]; Homo sapiens, NCI-H358, 120 h) [nM]	IC50 [2] [nM]	IC50 [3] [nM]	IC50 [4] [nM]	IC50 [1] [nM]
C=CC(=O)N1CCN2C(=O)c3c(N4CCN5CCCC5(C)C4)nc(-c4c(O)cccc4F)c(Cl)c3OC[C@H]2C1 (stereo partly drawn) [Z339, (6aR)-8-acryloyl-4-chloro-3-(2-fluoro-6-hydroxyphenyl)-1-(8a-methyloctahydropyrrolo[1,2-c]pyrazin-6 (2H)-one-1-yl)-6,6a,7,8,9,10-hexahydro-12H-pyrazino[2,1-c]pyrido[3,4-f][1,4]oxazepin-12-one]	29	143			
C=CC(=O)N1CCN2C(=O)c3c(N4CC(N5CC(F)C5)CC4(C)C)nc(-c4ccccc4F)c(Cl)c3OC[C@H]2C1 (single isomer, unassigned) [Z480-2]	155		321		
C=CC(=O)N1CCN2C(=O)c3c(N4C[C@H](C(=O)O)CC4(C)C)nc(-c4c(O)cccc4F)c(Cl)c3OC[C@H]2C1 (single isomer, unassigned) [Z458-2]			252	> 1000	
C=CC(=O)N1CCN2C(=O)c3c(N4C[C@H](N5CCN(C)CC5)CC4(C)C)nc(-c4ccccc4F)c(F)c3OC[C@H]2C1 (single isomer, unassigned) [Z474-2]	63.3		593		
C=CC(=O)N1CCN2C(=O)c3c(N4C[C@@H](N(C)CCOC)CC4(C)C)nc(-c4ccccc4F)c(Cl)c3OC[C@H]2C1 (single isomer, unassigned) [Z406-2]	21		175		
C=CC(=O)N1CCN2C(=O)c3c(N4CCC[C@@]4(C)C(=O)NC)nc(-c4c(F)cccc4OC)c(Cl)c3OC[C@H]2C1 (single isomer, unassigned) [Z466-2]			383		38
C=CC(=O)N1CCN2C(=O)c3c(N4C[C@@H](C)O[C@H](C)C4)nc(-c4c(O)cccc4F)c(Cl)c3OC[C@H]2C1 [Z248-2, (6aR)-8-acryloyl-4-chloro-1-((2R,6R)-2,6-dimethylmorpholino)-3-(2-fluoro-6-hydroxyphenyl)-6,6a,7,8,9,10-hexahydro-12H-pyrazino[2,1-c]pyrido[3,4-f][1,4]oxazepin-12-one]	16		169		
C=CC(=O)N1CCN2C(=O)c3c(N4CC(N5CC(OC)C5)CC4(C)C)nc(-c4ccccc4F)c(Cl)c3OC[C@H]2C1 (single isomer, unassigned) [Z479-2]	74.9		431		
C=CC(=O)N1CCN2C(=O)c3c(N4C[C@@H](O)[C@@H]4C)nc(-c4c(O)cccc4F)c(Cl)c3OC[C@H]2C1 (single isomer, unassigned) [Z102-1]	51.3		194		
C=CC(=O)N1CCN2C(=O)c3c(N4CC5CCC(=O)N5C[C@@H]4C)nc(-c4c(O)cccc4F)c(Cl)c3OC[C@H]2C1 (stereo partly drawn) [Z330-1, (6aR)-8-acryloyl-4-chloro-3-(2-fluoro-6-hydroxyphenyl)-1-((3S)-3-methyl-6-oxohexahydropyrrolo[1,2-c]pyrazin-2 (1H)-yl)-6,6a,7,8,9,10-hexahydro-12H-pyrazino[2,1-c]pyrido[3,4-f][1,4]oxazepin-12-one]			226		
C=CC(=O)N1CCN2C(=O)c3c(N4CCC[C@@]4(C)C(=O)NC)nc(-c4c(F)cccc4OC)c(Cl)c3OC[C@H]2C1 (single isomer, unassigned) [Z466-1]	49		764		
C=CC(=O)N1CCN2C(=O)c3c(N4CCN(C)[C@H](C)[C@@H]4C)nc(-c4c(O)cccc4F)c(Cl)c3OC[C@H]2C1 (relative stereo) [Z465, (6aR)-8-acryloyl-4-chloro-3-(2-fluoro-6-hydroxyphenyl)-1-(cis-2,3,4-trimethylpiperazin-1-yl)-12-oxo-6,6a,7,8,9,10-hexahydro-12H-pyrazino[2,1-c]pyrido[3,4-f][1,4]oxazepin-12-one]			275		38
C=CC(=O)N1CCN2C(=O)c3c(N4CCN(CCOC)C(C)(C)C4)nc(-c4ccccc4F)c(Cl)c3OCC2C1 (stereo not shown) [Z478, 8-acryloyl-4-chloro-3-(2-fluorophenyl)-1-(4-(2-methoxyethyl)-3,3-dimethylpiperazin-1-yl)-6,6a,7,8,9,10-hexahydro-12H-pyrazino[2,1-c]pyrido[3,4-f][1,4]oxazepin-12-one]	29.6		423		
